Measurements published in patent publication US5202314A, “10-thioethyl-steroids” (Roussel Uclaf, priority 1991, dated 1993).

Target: T1, aromatase (Homo sapiens, UniProt P11511)
T1 construct: The supernatant was then subjected to an ultracentrifugation stage (90 minutes, 105,000 g) to obtain the microsomal regulus; from tissue; host or cells: human placenta, microsomal fraction
T1 sequence (P11511 1-503): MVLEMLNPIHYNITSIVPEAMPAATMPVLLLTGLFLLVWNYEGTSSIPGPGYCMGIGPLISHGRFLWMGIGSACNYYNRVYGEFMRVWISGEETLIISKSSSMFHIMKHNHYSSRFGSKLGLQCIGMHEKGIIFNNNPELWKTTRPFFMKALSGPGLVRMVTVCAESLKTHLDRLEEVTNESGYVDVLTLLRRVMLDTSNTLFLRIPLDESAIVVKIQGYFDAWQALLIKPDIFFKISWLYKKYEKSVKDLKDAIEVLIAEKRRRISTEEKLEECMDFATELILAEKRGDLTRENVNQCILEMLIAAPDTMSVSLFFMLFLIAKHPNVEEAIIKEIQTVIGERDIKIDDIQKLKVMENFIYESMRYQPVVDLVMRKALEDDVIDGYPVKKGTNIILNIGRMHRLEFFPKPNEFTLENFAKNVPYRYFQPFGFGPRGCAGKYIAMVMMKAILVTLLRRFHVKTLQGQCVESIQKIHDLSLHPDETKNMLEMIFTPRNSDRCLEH
Experiment: Inhibition of aromatase in human placental microsomes (tritiated water release from 1β-2β-3H-Androstenedione)
Format: biochemical
Conditions: 25 micrograms of proteins per test, substrate Androstenedione 500 nM, NADPH, 37° C., 10 minutes, read-out: IC50 (concentration of inhibitor necessary to decrease by 50% the enzymatic activity)
Method: Inhibition dependent on the concentration (measurement of IC50 =concentration of inhibitor necessary to reduce the enzymatic activity by 50%). Human placentas were used which were washed one hour at most after birth, perfused with physiological serum (5 liters) via the umbilical vein and then deep-frozen at -40° C.
(1) Obtaining the placental microsomes
The placentas were thawed at 4° C. and then homogenized (1:3) in a phosphate buffer 10 mM, pH=7.0; containing 100 millimoles of potassium chloride (KCl), 10 millimoles of dithiothreitol (DTT), 10 millimoles of ethylenediaminetetraacetic acid (EDTA), 40 millimoles of nicotinamide and 250 millimoles of sucrose. […]
The supernatant was then subjected to an ultracentrifugation stage (90 minutes, 105,000 g) to obtain the microsomal regulus. […] The protein concentration of the microsomal suspension was determined by the BRADFORD method BRADFORD M., Anal. Biochem., Vol. 72, (1976), p. […]
After centrifugation, 100 microliters of supernatant were taken from each tube and counted in the presence of a scintillating liquid. […] The inhibition obtained for each concentration of each inhibitor product of the invention was calculated as a percentage of the controls (arbitrary 100% , obtained in absence of any inhibitor). […]

CSCC[C@]12CCC(=O)C=C1[C@H](O)C[C@H]1[C@@H]3CCC(=O)[C@@]3(C)C[C@H]3O[C@]312 [Example 2, 9α, 11α-epoxy-10β-[2-methylthio-ethyl]-Δ^4-estrene-6β-ol-3,17-dione]
IC50: 180 nM
